The target in the test is T1, Axl (Homo sapiens, UniProt P30530).
T1 construct: endogenous in cells; host or cells: HeLa cells
T1 sequence (P30530 26-894): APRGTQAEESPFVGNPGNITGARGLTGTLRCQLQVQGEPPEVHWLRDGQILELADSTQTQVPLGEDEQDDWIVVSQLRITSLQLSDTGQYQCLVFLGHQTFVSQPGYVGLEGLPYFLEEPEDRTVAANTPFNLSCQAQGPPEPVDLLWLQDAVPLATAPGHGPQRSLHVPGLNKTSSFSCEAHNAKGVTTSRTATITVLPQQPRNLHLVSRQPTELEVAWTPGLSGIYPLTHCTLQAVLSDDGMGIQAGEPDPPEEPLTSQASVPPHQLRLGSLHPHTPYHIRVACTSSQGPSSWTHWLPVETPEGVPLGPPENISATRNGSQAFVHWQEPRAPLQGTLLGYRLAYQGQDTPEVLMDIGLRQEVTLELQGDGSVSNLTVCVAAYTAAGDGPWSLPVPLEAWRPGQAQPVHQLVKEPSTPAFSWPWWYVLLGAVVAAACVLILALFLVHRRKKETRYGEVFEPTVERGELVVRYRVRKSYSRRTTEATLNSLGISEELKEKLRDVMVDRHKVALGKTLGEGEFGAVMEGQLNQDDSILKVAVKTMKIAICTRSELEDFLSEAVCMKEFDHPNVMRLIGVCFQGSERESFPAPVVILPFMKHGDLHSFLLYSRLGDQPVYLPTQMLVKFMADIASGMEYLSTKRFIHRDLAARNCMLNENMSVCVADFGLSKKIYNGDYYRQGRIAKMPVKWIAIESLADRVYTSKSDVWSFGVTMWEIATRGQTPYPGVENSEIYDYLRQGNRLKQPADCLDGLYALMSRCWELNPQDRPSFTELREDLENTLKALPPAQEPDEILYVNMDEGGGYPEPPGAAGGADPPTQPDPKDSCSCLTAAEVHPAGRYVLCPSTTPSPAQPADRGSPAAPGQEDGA
Description: Phospho-Akt in-cell Western assay (inhibition of Axl activity, Axl-antibody cross-linking stimulation). Type of test: cell-based. Conditions: Hela cells, phospho-Akt readout; compounds of formula (Ia), Table 1. The procedure: The compounds of the invention were tested in the following assay for their ability to inhibit Axl activity.
Phospho-Akt in-Cell Western Assay
• Cell culture plate: 96 well assay plate (Corning 3610), white, clear bottom, tissue-culture treated. • Cells: Hela cells. • Starvation medium: For Axl stimulation: 0.5% FCS (fetal calf serum) in DMEM, plus Axl/Fc (extracellular domain of AXL fused to immunoglobulin Fc region) (R&D, 154-AL) 500 ng/mL. • For EGF (epidermal growth factor) stimulation: 0.5% FCS in DMEM (Dulbecco's modified Eagles medium). • Poly-L-Lysine 0.01% solution (the working solution): 10 μg/ml, dilute In PBS (phosphate buffered saline). • Axl antibody cross-linking: • 1st: Mouse anti-Axl (R&D, MAB154). • 2nd: Biotin-SP-conjugated AffiniPure goat anti-mouse IgG (H+L) (Jackson ImmunoResearch #115-065-003). • Fixing buffer: 4% formaldehyde in PBS. • Wash buffer: 0.1% TritonX-100 in PBS. • Quenching buffer: 3% H2O2, 0.1% Azide in wash buffer, Azide and hydrogen peroxide (H2O2) are added fresh. • Blocking buffer: 5% BSA in TBST (tris buffered saline plus 0.1% Tween 20). • Primary antibody: Rabbit anti-human Phospho-Akt antibody (Cell Signaling 9271): 1×250 diluted in blocking buffer. • Secondary antibody: HRP (horse radish peroxidase)-conjugated Goat anti-Rabbit secondary, stock solution: Jackson ImmunoResearch (Goat anti-Rabbit HRP, #111-035-144) 1:1 diluted in glycerol, store at −20° C. The working solution: 1×2000 dilution of stock in blocking buffer. • Chemiluminescent working solution (Pierce, 37030): SuperSignal ELISA (enzyme linked immunosorbant assay) Pico Chemiluminescent substrate. • Crystal Violet solution: Stock: 2.5% Crystal violet in methanol, filtered and kept at ambient temperature. The working solution: dilute the stock 1:20 with PBS immediately before use.
10% SDS: working solution: 5% SDS (sodium dodecylsulfate), diluted in PBS
A 96 well TC (tissue culture treated) plate was coated with 10 μg/mL poly-L-Lysine at 37° C. for 30 min, washed twice with PBS, and air-dried for 5 minutes before cells were added. Hela cells were seeded at 10,000 cells/well and the cells were starved in 100 μL starvation medium containing Axl/Fc for 24 hrs.
The cells were pre-treated with test compounds by adding 100 μL of 2× test compound to the starvation medium on the cells. The cells were incubated at 37° C. for 1 hr before stimulation.
The cells were stimulated by Axl-antibody cross-linking as follows: A 5×1st/2nd Axl antibody mixture was made (37.5 μg/mL 1st/100 μg/mL 2 nd) in starvation medium and nutated at 4° C. with thorough mixing for 1-2 hours for clustering. The resulting mix was warmed to 37° C. 50 μL of 5×Axl 1st/2nd of antibody cluster was added to the cells and the cells were incubated at 37° C. for 5 min.
After 5 minutes stimulation, the plate was flicked to remove medium and the plate was tapped onto paper towels. Formaldehyde (4.0% in PBS, 100 μL) was added to fix the cells and the cells were incubated at ambient temperature for 20 min without shaking.
The cells were washed with a plate washer buffer to remove the formaldehyde solution. The plate was flicked to removed excess wash buffer and tapped onto paper towels. Quenching buffer (100 μL) was added to each well and the cells were incubated at ambient temperature for 20 minutes without shaking.
The cells were washed with a plate washer buffer to remove the quenching buffer. Blocking buffer (100 μL) was added and the cells were incubated at ambient temperature for at least an hour with gentle shaking.
The cells were washed with a plate washer buffer and diluted primary antibody (50 μL) was added to each well (blocking buffer was added to the negative control wells instead). The plates were incubated overnight at 4° C. with gentle shaking.
The wash buffer was removed, diluted secondary antibody (100 μL) was added, and the cells were incubated at ambient temperature for 1 hour with gentle shaking. […]

The structures appear in SMILES notation.

Broadly, the IC50 is the concentration at which inhibition is half-maximal. Low readings indicate inhibition by little substance, high ones a need for much substance.

In turn, `CCN(CC)CC1CCCN1c1ccc(Nc2nc(N)n(-c3ncnc4cc(OC)c(OC)cc34)n2)cn1` (stereo not drawn) [compound 39, 1-(6,7-dimethoxy-quinazoline-4-yl)-N^3-(6-(2-diethyl-aminomethyl-pyrrolidin-1-yl)pyridin-3-yl)-1H-1,2,4-triazole-3,5-diamine] displayed an IC50 below 1000 nM. In the case of `CN1CCN(c2ccc(Nc3nc(N)n(-c4nccc5ccccc45)n3)cn2)CC1` [compound 31, 1-(isoquinolin-1-yl)-N^3-(6-(4-methyl-piperazin-1-yl)pyridin-3-yl)-1H-1,2,4-triazole-3,5-diamine], the 50% inhibitory concentration (IC50) was below 1000 nM.

`Cc1csc2c(-n3nc(Nc4ccc(C=CCN5CCC(N6CCN(C)CC6)CC5)nc4)nc3N)ncnc12` [compound 128, 1-(7-methylthieno [3,2-d]pyrimidin-4-yl)-N^3-(2-(3-(4-(4-methyl-piperazin-1-yl)piperidin-1-yl)propen-1-yl)pyridin-5-yl)-1H-1,2,4-triazole-3,5-diamine] displayed an IC50 below 1000 nM.

Molecule `Cc1csc2c(-n3nc(Nc4cnc5c(c4)CC(N4CCCC4)CC5)nc3N)ncnc12` (stereo not drawn) [compound 85, 1-(7-methylthieno [3,2-d]pyrimidin-4-yl)-N^3-(6-pyrrolidin-1-yl-5,6,7,8-tetrahydro-quinolin-3-yl)-1H-1,2,4-triazole-3,5-diamine] registered an IC50 below 1000 nM. In the case of `CCOC(=O)N1CCc2ncc(Nc3nc(N)n(-c4nc(Cl)nc5c(C)csc45)n3)cc2C1` [compound 19, 1-(2-chloro-7-methylthieno [3,2-d]pyrimidine-4-yl)-N^3-(6-(ethylcarboxy)-5,6,7,8-tetrahydro-1,6-naphthyridin-3-yl)-1H-1,2,4-triazole-3,5-diamine] it was above 20000 nM; in that of `Cc1cc(Nc2nc(N)n(-c3nc(Cl)nc4c(C)csc34)n2)cnc1N1CCN([C@H]2CC3CCC2C3)[C@@H](C)C1` (stereo partly drawn) [compound 107, 1-(2-chloro-7-methylthieno [3,2-d]pyrimidin-4-yl)-N^3-(2-(3-(S)-methyl-4-(2S)-bicyclo[2.2.1]heptan-2-ylpiperazin-1-yl)-3-methylpyridin-5-yl)-1H-1,2,4-triazole-3,5-diamine], below 1000 nM. `Cc1csc2c(-n3nc(Nc4ccc(N5CC6CN(C7CC8CCC7C8)CC6C5)nc4)nc3N)nc(Cl)nc12` (stereo not drawn) [compound 57, 1-(2-chloro-7-methylthieno [3,2-d]pyrimidine-4-yl)-N^3-(6-(5-bicyclo[2.2.1]heptan-2-yl-octahydropyrrol [3,4-c]pyrrolyl)pyridine-3-yl)-1H-1,2,4-triazole-3,5-diamine]: the IC50 was below 1000 nM. In the case of `Cc1csc2c(-n3nc(Nc4cnc5c(c4)CCN(C4CCCC4)CC5)nc3N)nc(Cl)nc12` [compound 12, 1-(2-chloro-7-methylthieno [3,2-d]pyrimidine-4-yl)-N^3-(7-cyclopentyl-6,7,8,9-tetrahydro-5H-pyrido [3,2-d]azepin-3-yl)-1H-1,2,4-triazole-3,5-diamine] it was 1000 to 10000 nM; in that of `Nc1nc(Nc2ccc(N3CCN(C4CC5CCC4C5)CC3)nc2)nn1-c1nccc2ccccc12` (stereo not drawn) [compound 7, 1-(isoquinolin-1-yl)-N^3-(6-(4-(bicyclo[2.2.1]heptan-2-yl)piperazin-1-yl)pyridin-3-yl)-1H-1,2,4-triazole-3,5-diamine], below 1000 nM; in that of `Cc1csc2c(-n3nc(Nc4ccc(Br)nc4)nc3N)ncnc12` [compound 118, 1-(7-methylthieno [3,2-d]pyrimidin-4-yl)-N^3-(2-bromopyridin-5-yl)-1H-1,2,4-triazole-3,5-diamine], above 20000 nM. On to `Cc1csc2c(-n3nc(Nc4cnc5c(c4)CC(NC4CCCCC4)CC5)nc3N)nc(Cl)nc12` (stereo not drawn) [compound 100, 1-(2-chloro-7-methylthieno [3,2-d]pyrimidin-4-yl)-N^3-(6-cyclohexyl-amino-5,6,7,8-tetrahydro-quinolin-3-yl)-1H-1,2,4-triazole-3,5-diamine], for which the concentration for half-maximal inhibition (IC50) is below 1000 nM. In the case of `Cc1csc2c(-n3nc(Nc4cnc5c(c4)CC(NC(=O)C4CCN(C)CC4)CC5)nc3N)ncnc12` (stereo not drawn) [compound 98] it was below 1000 nM; in that of `COc1cc2ncnc(-n3nc(Nc4cnc(N5CCC(N6CCCC6)CC5)c(C)c4)nc3N)c2cc1OC` [compound 42, 1-(6,7-dimethoxy-quinazoline-4-yl)-N^3-(6-(4-(pyrrolidin-1-yl)piperidin-1-yl)-5-methylpyridin-3-yl)-1H-1,2,4-triazole-3,5-diamine], below 1000 nM; in that of `Cc1csc2c(-n3nc(Nc4ccc(N5CCCN(C6CCCC6)CC5)nc4)nc3N)nc(Cl)nc12` [compound 10, 1-(2-chloro-7-methylthieno [3,2-d]pyrimidine-4-yl)-N^3-(6-(4-cyclopentyl-1,4-diazepan-1-yl)pyridin-3-yl)-1H-1,2,4-triazole-3,5-diamine], below 1000 nM.

In turn, `Cc1csc2c(-n3nc(Nc4cnc5c(c4)C4CC(N6CCCC6)CC4C5)nc3N)nc(Cl)nc12` (stereo not drawn) [compound 64, 1-(2-chloro-7-methylthieno [3,2-d]pyrimidin-4-yl)-N^3-(6-(pyrrolidin-1-yl)-4b,5,6,7,7a,8-hexahydro-pentaleno[2,1-b]pyridin-3-yl)-1H-1,2,4-triazole-3,5-diamine] yielded a half-inhibitory concentration (IC50) below 1000 nM.

In turn, `Cc1cc(Nc2nc(N)n(-c3ncnc4ccsc34)n2)cnc1N1CCN([C@H]2CC3CCC2C3)[C@@H](C)C1` (stereo partly drawn) [compound 108, 1-(thieno [3,2-d]pyrimidin-4-yl)-N^3-(2-(3-(S)-methyl-4-(2S)-bicyclo[2.2.1]heptan-2-ylpiperazin-1-yl)-3-methylpyridin-5-yl)-1H-1,2,4-triazole-3,5-diamine] displayed a 50% inhibitory concentration (IC50) below 1000 nM.

`Cc1cc(Nc2nc(N)n(-c3nc(Cl)nc4c(C)csc34)n2)cnc1N1CCC(N2CCCC2)CC1` [compound 41, 1-(2-chloro-7-methylthieno [3,2-d]pyrimidin-4-yl)-N^3-(6-(4-(pyrrolidin-1-yl)piperidin-1-yl)-5-methylpyridin-3-yl)-1H-1,2,4-triazole-3,5-diamine] yielded a half-inhibitory concentration (IC50) below 1000 nM.

Molecule `CCN(CC)C1CCN(CC=Cc2ccc(Nc3nc(N)n(-c4ncnc5cc(OC)c(OC)cc45)n3)cn2)C1` (stereo not drawn) [compound 78, 1-(6,7-dimethoxy-quinazoline-4-yl)-N^3-(6-(3-(3-(diethylamino)pyrrolidin-1-yl)propenyl)pyridin-3-yl)-1H-1,2,4-triazole-3,5-diamine] displayed an IC50 below 1000 nM.

For the origin of these results see patent publication US8796259B2, “N3-heteroaryl substituted triazoles and N5-heteroaryl substituted triazoles useful as axl inhibitors” (Rigel Pharmaceuticals, Inc., priority 2006, dated 2014).
